In ChEMBL document CHEMBL2069259, “Preclinical strategy to reduce clinical hepatotoxicity using in vitro bioactivation data for >200 compounds” (Chem Res Toxicol, 2012):

How the values were obtained:
Liver microsomes [1] = conditions: human, 1.5 h, 100 µM
CYP2C19 = CYP2C19 (Homo sapiens, UniProt P33261); assay: Inhibition of human CYP2C19 assessed as ratio of IC50 in absence of NADPH to IC50 for presence of NADPH using 3-butyryl-7-methoxycoumarin as substrate after 30 mins
Liver microsomes [2] = assay: Metabolic stability in human liver microsomes assessed as high signal/noise ratio (S/N of >100) by measuring GSH adduct formation at 100 uM after 90 mins by HPLC-MS analysis; conditions: 1.5 h
Liver microsomes [3] = assay: Metabolic stability in human liver microsomes assessed as GSH adduct formation at 100 uM after 90 mins by HPLC-MS analysis; conditions: 1.5 h
CYP3A4 [4] = molecular target: T1, CYP3A4 (Homo sapiens, UniProt P08684); assay: Inhibition of human CYP3A4 assessed as ratio of IC50 in absence of NADPH to IC50 for presence of NADPH using diethoxyfluorescein as substrate after 30 mins
CYP3A4 [5] = molecular target: T1, CYP3A4; assay: Inhibition of human CYP3A4 assessed as ratio of IC50 in absence of NADPH to IC50 for presence of NADPH using 7-benzyloxyquinoline as substrate after 30 mins
[6] = probe 3-butyryl-7-methoxycoumarin

Sequence of CYP2C19 (P33261 whole entry): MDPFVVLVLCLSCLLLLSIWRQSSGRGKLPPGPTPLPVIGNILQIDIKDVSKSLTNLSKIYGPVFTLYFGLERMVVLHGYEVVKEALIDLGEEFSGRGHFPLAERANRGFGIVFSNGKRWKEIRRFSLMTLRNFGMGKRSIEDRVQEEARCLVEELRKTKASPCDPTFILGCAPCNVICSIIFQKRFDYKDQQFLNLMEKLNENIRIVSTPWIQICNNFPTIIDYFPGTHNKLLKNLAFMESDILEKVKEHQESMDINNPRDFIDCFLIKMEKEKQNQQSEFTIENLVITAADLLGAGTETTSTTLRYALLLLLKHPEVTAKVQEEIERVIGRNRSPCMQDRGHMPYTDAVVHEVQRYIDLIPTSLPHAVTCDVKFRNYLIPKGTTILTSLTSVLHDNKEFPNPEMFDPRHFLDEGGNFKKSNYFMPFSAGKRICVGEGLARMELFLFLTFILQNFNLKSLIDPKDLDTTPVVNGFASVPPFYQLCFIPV
T1 sequence (P08684 whole entry): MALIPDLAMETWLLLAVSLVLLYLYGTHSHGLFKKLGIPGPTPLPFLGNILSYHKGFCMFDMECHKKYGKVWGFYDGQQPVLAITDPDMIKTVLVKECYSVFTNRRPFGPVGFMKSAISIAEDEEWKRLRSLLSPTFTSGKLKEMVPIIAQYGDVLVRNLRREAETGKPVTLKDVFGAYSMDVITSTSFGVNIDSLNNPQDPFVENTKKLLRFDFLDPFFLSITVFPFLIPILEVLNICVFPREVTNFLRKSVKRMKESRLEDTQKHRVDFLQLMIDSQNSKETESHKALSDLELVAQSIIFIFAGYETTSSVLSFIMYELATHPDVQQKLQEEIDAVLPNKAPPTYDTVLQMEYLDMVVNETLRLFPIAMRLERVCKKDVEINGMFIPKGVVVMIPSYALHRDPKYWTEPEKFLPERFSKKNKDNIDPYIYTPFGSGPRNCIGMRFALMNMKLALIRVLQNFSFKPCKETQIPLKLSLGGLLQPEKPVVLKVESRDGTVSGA

| Compound | Stability (Liver microsomes [1]) | Stability (Liver microsomes [2]) | other results |
| --- | --- | --- | --- |
| CC1=C(CC(=O)O)c2cc(F)ccc2/C1=C\c1ccc([S+](C)[O-])cc1 (stereo unspecified) | Unstable | – | – |
| Nc1ccc(C(=O)O)c(O)c1 [AMINOSALICYLIC ACID] | Unstable | – | – |
| CN(C)CCC=C1c2ccccc2CCc2ccccc21 [AMITRIPTYLINE] | – | Unstable | IC50 shift at 0.5 h (CYP2C19; [6]): < 2 |
| C[C@@H]1[C@H](O)[C@@H](C)/C=C/C=C/C=C/C=C/C=C/C=C/C=C/[C@H](O[C@@H]2O[C@H](C)[C@@H](O)[C@H](N)[C@@H]2O)C[C@@H]2O[C@](O)(C[C@@H](O)C[C@@H](O)[C@H](O)CC[C@@H](O)C[C@@H](O)CC(=O)O[C@H]1C)C[C@H](O)[C@H]2C(=O)O [AMPHOTERICIN B] | – | – | IC50 shift at 0.5 h (CYP2C19; [6]): < 2; Stability (Liver microsomes [3]): Stable |
| CC(=O)Oc1ccccc1C(=O)O [ASPIRIN] | – | – | IC50 shift at 0.5 h (CYP2C19): < 2; Stability (Liver microsomes [3]): Stable |
| O=NN(CCCl)C(=O)NCCCl [CARMUSTINE] | Unstable | – | – |
| O=C1CCc2cc(OCCCCc3nnnn3C3CCCCC3)ccc2N1 [CILOSTAZOL] | – | – | IC50 shift at 0.5 h (CYP3A4 [4]): 2; IC50 shift at 0.5 h (CYP3A4 [5]): 2; Stability (Liver microsomes [3]): Stable |
| O=C(O)[C@H]1/C(=C/CO)O[C@@H]2CC(=O)N21 [CLAVULANIC ACID] | – | Unstable | – |
| O=c1ccc2ccccc2o1 [COUMARIN] | Unstable | – | – |
| O=P1(N(CCCl)CCCl)NCCCO1 (stereo unspecified) [CYCLOPHOSPHAMIDE ANHYDROUS] | Unstable | – | – |
| CC(=O)[C@@]1(O)CC[C@H]2[C@@H]3C=C(Cl)C4=CC(=O)[C@@H]5C[C@@H]5[C@]4(C)[C@H]3CC[C@@]21C [CYPROTERONE] | – | Unstable | – |
| CN(C)/N=N/c1[nH]cnc1C(N)=O [DACARBAZINE] | – | Unstable | – |
| C#C[C@]1(O)CC[C@H]2[C@@H]3CCC4=Cc5oncc5C[C@]4(C)[C@H]3CC[C@@]21C [DANAZOL] | Unstable | – | IC50 shift at 0.5 h (CYP2C19): < 2 |
| O=C(O)Cc1ccccc1Nc1c(Cl)cccc1Cl [DICLOFENAC] | Unstable | – | – |
| CN(CCOc1ccc(NS(C)(=O)=O)cc1)CCc1ccc(NS(C)(=O)=O)cc1 [DOFETILIDE] | Unstable | – | – |
| C[C@]12CC[C@@H]3c4ccc(O)cc4CC[C@H]3[C@@H]1CC[C@@H]2O [ESTRADIOL] | – | Unstable | IC50 shift at 0.5 h (CYP3A4 [4]; probe diethoxyfluorescein): < 2 |
| C[C@]12CC[C@@H]3c4ccc(O)cc4CC[C@H]3[C@@H]1C[C@@H](O)[C@@H]2O [ESTRIOL] | Unstable | – | – |
| COc1cc([C@@H]2c3cc4c(cc3[C@@H](O[C@@H]3O[C@@H]5CO[C@@H](C)O[C@H]5[C@H](O)[C@H]3O)[C@H]3COC(=O)[C@H]23)OCO4)cc(OC)c1O [ETOPOSIDE] | – | Unstable | – |
| CC1(C)O[C@@H]2C[C@H]3[C@@H]4C[C@H](F)C5=CC(=O)C=C[C@]5(C)[C@H]4[C@@H](O)C[C@]3(C)[C@]2(C(=O)CO)O1 [FLUNISOLIDE] | – | Unstable | – |
| NNc1nncc2ccccc12 [HYDRALAZINE] | Unstable | – | – |
| CC(C)NNC(=O)c1ccncc1 [IPRONIAZID] | – | – | IC50 shift at 0.5 h (CYP3A4 [4]; probe diethoxyfluorescein): > 5; Stability (Liver microsomes [3]): Stable |
| CC[C@H](C)C(=O)O[C@H]1C[C@@H](C)C=C2C=C[C@H](C)[C@H](CC[C@@H]3C[C@@H](O)CC(=O)O3)[C@H]21 [LOVASTATIN] | Unstable | – | – |
| CNC1(C)C2CCC(C2)C1(C)C (stereo unspecified) [MECAMYLAMINE] | – | – | IC50 shift at 0.5 h (CYP2C19): < 2; Stability (Liver microsomes [3]): Stable |
| Cc1coc2c1CCC(C)C2 (stereo unspecified) [MENTHOFURAN] | – | – | IC50 shift at 0.5 h (CYP2C19; [6]): < 2 |
| Sc1ncnc2nc[nH]c12 [MERCAPTOPURINE ANHYDROUS] | – | Unstable | – |

| Compound | Stability (Liver microsomes [1]) | Stability (Liver microsomes [2]) | other results |
| --- | --- | --- | --- |
| C[C@@H](O)[C@H]1C(=O)N2C(C(=O)O)=C(S[C@@H]3CN[C@H](C(=O)N(C)C)C3)[C@H](C)[C@H]12 [MEROPENEM] | – | Unstable | – |
| COc1ccccc1OCC(O)COC(N)=O (stereo unspecified) [METHOCARBAMOL] | – | – | IC50 shift at 0.5 h (CYP2C19; [6]): < 2; Stability (Liver microsomes [3]): Stable |
| CN(C)c1ccc(O)c2c1C[C@H]1C[C@H]3[C@H](N(C)C)C(O)=C(C(N)=O)C(=O)[C@@]3(O)C(O)=C1C2=O [MINOCYCLINE] | Unstable | – | – |
| CO[C@@]12[C@H](COC(N)=O)C3=C(C(=O)C(C)=C(N)C3=O)N1C[C@@H]1N[C@@H]12 [MITOMYCIN] | – | Unstable | – |
| CC(C)[C@H]1CC[C@H](C(=O)N[C@H](Cc2ccccc2)C(=O)O)CC1 [NATEGLINIDE] | Unstable | – | – |
| Cc1ccnc2c1NC(=O)c1cccnc1N2C1CC1 [NEVIRAPINE] | – | – | IC50 shift at 0.5 h (CYP3A4 [4]; probe diethoxyfluorescein): 2; Stability (Liver microsomes [3]): Stable |
| COC(=O)C1=C(C)NC(C)=C(C(=O)OCC(C)C)C1c1ccccc1[N+](=O)[O-] (stereo unspecified) [NISOLDIPINE] | Unstable | – | – |
| COc1ccc2[nH]c([S+]([O-])Cc3ncc(C)c(OC)c3C)nc2c1 (stereo unspecified) [OMEPRAZOLE] | – | Unstable | IC50 shift at 0.5 h (CYP2C19): < 2; IC50 shift at 0.5 h (CYP3A4 [4]): 2 |
| CCCCC1C(=O)N(c2ccccc2)N(c2ccc(O)cc2)C1=O (stereo unspecified) [OXYPHENBUTAZONE ANHYDROUS] | – | Unstable | – |
| CCCCC1C(=O)N(c2ccccc2)N(c2ccccc2)C1=O [PHENYLBUTAZONE] | – | Unstable | – |
| CCc1ccc(CCOc2ccc(CC3SC(=O)NC3=O)cc2)nc1 (stereo unspecified) [PIOGLITAZONE] | Unstable | – | – |
| CC(C(=O)O)c1ccc(N2CC=CC2)c(Cl)c1 (stereo unspecified) [PIRPROFEN] | Unstable | – | – |
| CN(C)C(=O)Oc1ccc[n+](C)c1 [PYRIDOSTIGMINE] | – | Unstable | IC50 shift at 0.5 h (CYP2C19): 2 |
| C=C[C@H]1C[N@@]2CC[C@H]1C[C@@H]2[C@@H](O)c1ccnc2ccc(OC)cc12 [QUINIDINE] | – | Unstable | – |
| CO[C@H]1/C=C/O[C@@]2(C)Oc3c(C)c(O)c4c(O)c(c(/C=N/N5CCN(C)CC5)c(O)c4c3C2=O)NC(=O)/C(C)=C\C=C\[C@H](C)[C@H](O)[C@@H](C)[C@@H](O)[C@@H](C)[C@H](OC(C)=O)[C@@H]1C [RIFAMPIN] | – | Unstable | – |
| C#CCN(C)[C@H](C)Cc1ccccc1 [SELEGILINE] | – | Unstable | – |
| CCC(C)(C)C(=O)O[C@H]1C[C@@H](C)C=C2C=C[C@H](C)[C@H](CC[C@@H]3C[C@@H](O)CC(=O)O3)[C@H]21 [SIMVASTATIN] | – | Unstable | – |
| Cc1cn([C@H]2C=C[C@@H](CO)O2)c(=O)[nH]c1=O [STAVUDINE] | Unstable | – | – |
| COc1ncnc(NS(=O)(=O)c2ccc(N)cc2)c1OC [SULFADOXINE] | Unstable | – | – |
| O=C(O)c1cc(/N=N/c2ccc(S(=O)(=O)Nc3ccccn3)cc2)ccc1O [SULFASALAZINE] | – | – | IC50 shift at 0.5 h (CYP2C19; [6]): < 2; Stability (Liver microsomes [3]): Stable |
| CN(C)[C@@H]1C(O)=C(C(N)=O)C(=O)[C@@]2(O)C(O)=C3C(=O)c4c(O)cccc4[C@@](C)(O)[C@H]3C[C@@H]12 [TETRACYCLINE] | Unstable | – | – |
| Cc1c(C)c2c(c(C)c1O)CCC(C)(COc1ccc(CC3SC(=O)NC3=O)cc1)O2 (stereo unspecified) [TROGLITAZONE] | Unstable | – | IC50 shift at 0.5 h (CYP3A4 [4]): 2 |
| CO[C@H]1C[C@H](O[C@H]2[C@H](C)[C@@H](O[C@@H]3O[C@H](C)C[C@H](N(C)C)[C@H]3OC(C)=O)[C@@H](C)C[C@@]3(CO3)C(=O)[C@H](C)[C@@H](OC(C)=O)[C@@H](C)[C@@H](C)OC(=O)[C@@H]2C)O[C@@H](C)[C@@H]1OC(C)=O [TROLEANDOMYCIN] | – | Unstable | – |
| COc1cc(C(=O)NS(=O)(=O)c2ccccc2C)ccc1Cc1cn(C)c2ccc(NC(=O)OC3CCCC3)cc12 [ZAFIRLUKAST] | – | – | IC50 shift at 0.5 h (CYP3A4 [4]; probe diethoxyfluorescein): > 5; IC50 shift at 0.5 h (CYP3A4 [5]; probe 7-benzyloxyquinoline): 2 |
